Where only a bound is given, the exact number is not on record here.

Data set [1] has as its system 293T cells expressing NAMPT S165F. In words: Response of 293T cells expressing NAMPT S165F. It is filed as cell-based. The conditions noted are these: NAMPT S165F expressed in 293T cells.
For data set [2], the system named is 293T cells expressing NAMPT S165Y. Briefly: Response of 293T cells expressing NAMPT S165Y. In kind it is cell-based. To be noted: NAMPT S165Y expressed in 293T cells.
In another data set the target is T1, NAMPT S165Y (Homo sapiens, UniProt P43490, S165Y).
T1 construct: An expression construct for full length human (XP_540386) NAMPT was constructed using pET21B; His6 (C); made in house; host or cells: E. coli Rosetta (DE3)
T1 sequence (P43490 whole entry S165Y): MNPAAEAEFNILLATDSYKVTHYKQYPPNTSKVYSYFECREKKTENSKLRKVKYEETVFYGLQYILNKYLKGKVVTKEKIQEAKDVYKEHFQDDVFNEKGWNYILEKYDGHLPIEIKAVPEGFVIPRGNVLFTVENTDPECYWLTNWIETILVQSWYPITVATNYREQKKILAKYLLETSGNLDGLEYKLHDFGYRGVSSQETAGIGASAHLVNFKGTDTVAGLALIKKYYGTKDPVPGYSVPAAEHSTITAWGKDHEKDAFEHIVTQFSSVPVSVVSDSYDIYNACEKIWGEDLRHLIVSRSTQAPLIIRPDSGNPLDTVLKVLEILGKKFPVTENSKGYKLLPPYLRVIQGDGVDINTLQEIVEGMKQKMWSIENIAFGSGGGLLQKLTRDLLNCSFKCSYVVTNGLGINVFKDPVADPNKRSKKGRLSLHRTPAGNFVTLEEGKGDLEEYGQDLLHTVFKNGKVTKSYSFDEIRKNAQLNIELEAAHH
In words: NAMPT enzymatic inhibition, S165Y mutant protein. The conditions noted are these: purified S165Y NAMPT 50 nM; 1 µM NAM, 100 µM PRPP, 2.5 mM ATP; read-out: Biochemical IC50, S165Y.

Another data set concerns the target T2, WT NAMPT (Homo sapiens, UniProt P43490).
T2 construct: An expression construct for full length human (XP_540386) NAMPT was constructed using pET21B; His6 (C); made in house; host or cells: E. coli Rosetta (DE3)
In words: NAMPT enzymatic inhibition, wild-type protein (RapidFire/MS detection of NMN). The conditions noted are these: purified wild-type NAMPT 30 nM; 1 µM NAM, 100 µM PRPP, 2.5 mM ATP; read-out: Biochemical IC50, WT.

Another data set addresses T3, NAMPT G217V (Homo sapiens, UniProt P43490, G217V).
T3 construct: An expression construct for full length human (XP_540386) NAMPT was constructed using pET21B; His6 (C); made in house; host or cells: E. coli Rosetta (DE3)
In words: NAMPT enzymatic inhibition, G217V mutant protein. The conditions noted are these: purified G217V NAMPT 30 nM; 1 µM NAM, 100 µM PRPP, 2.5 mM ATP; read-out: Biochemical IC50, G217V.

In another data set the target is T4, NAMPT G217A (Homo sapiens, UniProt P43490, G217A).
T4 construct: An expression construct for full length human (XP_540386) NAMPT was constructed using pET21B; His6 (C); made in house; host or cells: E. coli Rosetta (DE3)
T4 sequence (P43490 whole entry G217A): as the sequence (P43490 whole entry S165Y) above, with Y165S, G217A counted along it
Briefly: NAMPT enzymatic inhibition, G217A mutant protein. The conditions noted are these: purified G217A NAMPT 30 nM; 1 µM NAM, 100 µM PRPP, 2.5 mM ATP; read-out: Biochemical IC50, G217A.

Another data set addresses T5, NAMPT G217R (Homo sapiens, UniProt P43490, G217R).
T5 construct: An expression construct for full length human (XP_540386) NAMPT was constructed using pET21B; His6 (C); made in house; host or cells: E. coli Rosetta (DE3)
In words: NAMPT enzymatic inhibition, G217R mutant protein. The conditions noted are these: purified G217R NAMPT 30 nM; 1 µM NAM, 100 µM PRPP, 2.5 mM ATP; read-out: Biochemical IC50, G217R.

A further data set deals with T6, NAMPT S165F (Homo sapiens, UniProt P43490, S165F).
T6 construct: An expression construct for full length human (XP_540386) NAMPT was constructed using pET21B; His6 (C); made in house; host or cells: E. coli Rosetta (DE3)
T6 sequence (P43490 whole entry S165F): as the sequence (P43490 whole entry S165Y) above, with Y165F counted along it
In words: NAMPT enzymatic inhibition, S165F mutant protein. The conditions noted are these: purified S165F NAMPT 30 nM; 1 µM NAM, 100 µM PRPP, 2.5 mM ATP; read-out: Biochemical IC50, S165F.

A further data set has as its target T7, NAMPT H191R (Homo sapiens, UniProt P43490, H191R).
T7 construct: An expression construct for full length human (XP_540386) NAMPT was constructed using pET21B; His6 (C); made in house; host or cells: E. coli Rosetta (DE3)
Briefly: NAMPT enzymatic inhibition, H191R mutant protein. To be noted: purified H191R NAMPT 30 nM; 1 µM NAM, 100 µM PRPP, 2.5 mM ATP; read-out: Biochemical IC50, H191R.

Data set [3] can be described thus: Tolerability in xenograft-bearing mice. It is filed as in vivo. To be noted: doses tested in NCI-H460 parental and S165Y mutant models, oral QD 7 days.
In data set [4] the test system is NCI-H460 S165Y tumor xenografts. In words: NCI-H460 S165Y mutant xenograft efficacy. To be noted: oral QD, also at higher doses.
The next data set concerns RD cell line. In words: Cellular IC50 in parental RD cell line. The conditions noted are these: Homo sapiens, read-out: Parental GNE-618 IC50, NAPRT1 negative. In kind it is cell-based.
Data set [5] concerns RD cell line harboring only the D93 deletion. Briefly: Cellular IC50 shift, RD resistant line (earlier passage) with D93 deletion only. It is filed as cell-based. To be noted: cell line carrying D93del.
The test system of a further data set is NCI-H520 cell line. In words: Cellular IC50 in parental NCI-H520 cell line. It is filed as cell-based. To be noted: Homo sapiens, read-out: Parental GNE-618 IC50, NAPRT1 positive.
In data set [6] the test system is RD cell line with the S165F mutation. The conditions noted are these: RD parent and S165F resistant line, ± 10 µM nicotinic acid.
Another data set concerns Mia-Paca2 cell line. Briefly: Cellular IC50 in parental Mia-Paca2 cell line. It is filed as cell-based. The conditions noted are these: Homo sapiens, MIA PaCa-2, read-out: Parental GNE-618 IC50, NAPRT1 negative.
In data set [7] the test system is cell lines carrying S165Y (NCI-H460). Briefly: Cellular IC50 shift, resistant cell line carrying S165Y. It is filed as cell-based.
The subject of data set [8] is GNE-618 resistant cell lines. Briefly: Total cellular NAD in GNE-618 resistant cell lines. In kind it is cell-based. The conditions noted are these: after GNE-618 at 100-fold the parental line IC50; all resistant lines except those harboring only D93del or S165Y.
In data set [9] the test system is GNE-618 resistant cell lines harboring mutations other than D93del only or S165Y. In words: Cellular IC50 shift, resistant cell lines harboring the other mutations. To be noted: cell lines harboring the other mutations (not D93del only or S165Y). It is filed as cell-based.
The next data set has as its system NCI-H460 cell line. In words: Cellular IC50 in parental NCI-H460 cell line. In kind it is cell-based. To be noted: Homo sapiens, read-out: Parental GNE-618 IC50, NAPRT1 negative.
Data set [10] deals with NCI-H460 tumor xenografts. In words: NCI-H460 parental xenograft efficacy. It is filed as in vivo, mice. To be noted: 100 mg/kg, oral, QD for 7 days, p = 0.007 vs. vehicle.

T5 sequence (P43490 whole entry G217R): as the sequence (P43490 whole entry S165Y) above, with Y165S, G217R counted along it
T7 sequence (P43490 whole entry H191R): as the sequence (P43490 whole entry S165Y) above, with Y165S, H191R counted along it
T3 sequence (P43490 whole entry G217V): as the sequence (P43490 whole entry S165Y) above, with Y165S, G217V counted along it
T2 sequence (P43490 whole entry): as the sequence (P43490 whole entry S165Y) above, with Y165S counted along it

With `O=C(/C=C/c1cccnc1)NCCCCC1CCN(C(=O)c2ccccc2)CC1` [compound 11], the “Sensitivity compared to wild-type NAMPT expression” value in [1] and in data set [2] was “more modest” in each case.
As a reminder, the IC50 is the concentration needed to halve the response being measured. Consider `O=C(NCc1ccc(S(=O)(=O)c2ccccc2)cc1)c1cnc2[nH]ncc2c1` [compound 4], for which the IC50 at NAMPT S165Y is 2530 nM; at WT NAMPT, 80 nM; on NAMPT G217V it was 4160 nM; at NAMPT G217A, > 5000 nM; on NAMPT G217R it was > 5000 nM; at NAMPT S165F, 1930 nM. In addition, the concentration for half-maximal inhibition (IC50) at NAMPT H191R is > 5000 nM.
As to `N#CN=C(NCCCCCCOc1ccc(Cl)cc1)Nc1ccncc1` [compound 9], the “Sensitivity compared to wild-type NAMPT expression” value in data set [1] and in data set [2] was “more modest” in each case.
`CCN(C)c1ncc(S(=O)(=O)c2ccc(CNC(=O)c3cnc4[nH]ncc4c3)cc2)s1` [compound 7]: the 50% inhibitory concentration (IC50) was 115 nM on NAMPT S165Y; 7 nM on WT NAMPT; 3380 nM at NAMPT G217V; 2050 nM on NAMPT G217A; > 5000 nM on NAMPT G217R; 42 nM on NAMPT S165F. At NAMPT H191R, the IC50 was > 5000 nM.
As to `O=C(NCc1ccc(S(=O)(=O)c2cccc(C(F)(F)F)c2)cc1)c1cnc2[nH]ncc2c1` [compound 1], the “Tolerability (weight loss, morbidity, mortality)” value in data set [3] is “well tolerated”. For the same molecule, the “Response of tumor xenografts to treatment” value in [4] is “completely resistant”. Moreover, the “Sensitivity compared to wild-type NAMPT expression” value in data set [1] and in data set [2] was “diminished sensitivity” in each case. In addition, the IC50 is 2 ± 0.2 nM in the data set with RD cell line, 9 ± 0.4 nM with NCI-H520 cell line, 34 ± 2 nM in the data set on Mia-Paca2 cell line and 197 ± 6 nM in the data set with NCI-H460 cell line. The “Shift in IC50 vs parental” value in [5] and in [7] was “less than 100 fold” throughout. Besides, in [6], the “IC50 in the presence or absence of 10 µM NA” value is “not significantly different”. In [8], the “Reduction of cellular NAD” value is “less than 90%”. For the same molecule, in data set [9], the “Increase in IC50 vs parental” value is listed as ≥ 100 fold. Also, in data set [10], the Tumor growth inhibition was 54%.
On to `O=C(NCc1ccc(S(=O)(=O)c2cccc(C(F)(F)F)c2)cc1)c1cc2cnccc2s1` [compound 2], for which the IC50 at NAMPT S165Y was 21 nM; on WT NAMPT, 5 nM; on NAMPT G217V, > 5000 nM; on NAMPT G217A, 191 nM; at NAMPT G217R, > 5000 nM; on NAMPT S165F it was 15 nM. In addition, on NAMPT H191R, the IC50 is 2170 nM.
For `O=C(NCc1ccc(S(=O)(=O)c2ccc(N3CCOCC3)nc2)cc1)c1cnc2[nH]ncc2c1` [compound 6], the IC50 on NAMPT S165Y was 148 nM; on WT NAMPT, 26 nM; on NAMPT G217V, > 5000 nM; at NAMPT G217A it was > 5000 nM; at NAMPT G217R, > 5000 nM; at NAMPT S165F, 175 nM. Moreover, at NAMPT H191R, the IC50 is > 5000 nM.

For the origin of these results see publication PMC4186856, “Structural Basis for Resistance to Diverse Classes of NAMPT Inhibitors” (PLoS ONE, 2014).
